The test system of the experiment is BDF1 mice, P388 leukemia ip, median survival T/C. In words: NCI In Vivo Anticancer Drug Screen. Data for tumor model P388 Leukemia (intraperitoneal) in B6D2F1 (BDF1) mice. The following applies: endpoint: median survival time, higher = longer survival. In short, it runs like this:
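Vehicle-dosed animals serve as the reference; survival of compound-dosed, tumour-implanted mice is divided by it.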

[1] abbreviates: dose: 50.0 mg/kg/injection, schedule: Q01DX009 (ip), vehicle: saline.
Setting [2] is: dose: 100.0 mg/kg/injection, schedule: Q01DX009 (ip), vehicle: saline.
The mark [3] stands for this setting: dose: 100.0 mg/kg/injection, schedule: Q04DX003 (ip), vehicle: saline.
The mark [4] stands for this setting: dose: 200.0 mg/kg/injection, schedule: Q01DX009 (ip), vehicle: saline.
Setting [5] is: dose: 200.0 mg/kg/injection, schedule: Q04DX003 (ip), vehicle: saline.
The mark [6] stands for this setting: dose: 400.0 mg/kg/injection, schedule: Q01DX009 (ip), vehicle: saline.
The mark [7] stands for this setting: dose: 400.0 mg/kg/injection, schedule: Q04DX003 (ip), vehicle: saline.
Setting [8] is: dose: 100.0 mg/kg/injection, schedule: Q01DX009 (ip), vehicle: Klucel (hydroxypropylcellulose) (HPC).
[9] abbreviates: dose: 50.0 mg/kg/injection, schedule: Q01DX009 (ip), vehicle: saline with Tween-80.
Setting [10] is: dose: 100.0 mg/kg/injection, schedule: Q01DX009 (ip), vehicle: saline with Tween-80.
Where [11] appears, read: dose: 25.0 mg/kg/injection, schedule: Q01DX009 (ip), vehicle: saline with Tween-80.
Where [12] appears, read: dose: 200.0 mg/kg/injection, schedule: Q01DX009 (ip), vehicle: Klucel (hydroxypropylcellulose) (HPC).

Structures are written as SMILES. “And” between values parts separate entries of the source, which are not always exact repeats. Equal entries are not always repeated. Inconclusive results and toxic doses are left out.

In the case of `NC(=O)N/N=C(\CF)C(=O)O`, the T/C by setting is: (dose: 6.0 mg/kg/injection, schedule: Q01DX009 (ip), vehicle: Klucel (hydroxypropylcellulose) (HPC)) 105 % of control; (dose: 12.0 mg/kg/injection, schedule: Q01DX009 (ip), vehicle: Klucel (hydroxypropylcellulose) (HPC)) 105 % of control; (dose: 24.0 mg/kg/injection, schedule: Q01DX009 (ip), vehicle: Klucel (hydroxypropylcellulose) (HPC)) 115 % of control; (dose: 48.0 mg/kg/injection, schedule: Q01DX009 (ip), vehicle: Klucel (hydroxypropylcellulose) (HPC)) 105 % of control.
With `C#CC[N+]12CN3CN(CN(C3)C1)C2`, the T/C under setting [1] was 123 % of control.
`C#CC(=O)C1OC2OC(C)(C)OC2C2OC(C)(C)OC12` (stereo unspecified): the T/C by setting is: (dose: 3.12 mg/kg/injection, schedule: Q01DX005 (ip), vehicle: saline with Tween-80) 100 % of control; (dose: 6.25 mg/kg/injection, schedule: Q01DX005 (ip), vehicle: saline with Tween-80) 107 % of control; (dose: 12.5 mg/kg/injection, schedule: Q01DX005 (ip), vehicle: saline with Tween-80) 107 % of control.
`O=C(Nc1ccc([N+](=O)[O-])cc1)Nc1ccc([N+](=O)[O-])cc1` (tested in a mixture with another compound): the T/C by setting is: under setting [2], 109 % of control; under setting [3], 112 % of control and 104 % of control; under setting [4], 122 % of control; under setting [5], 100 % of control and 91 % of control; under setting [6], 118 % of control; under setting [7], 112 % of control and 100 % of control.
For `COc1ccc(C(O)C2CCCN(C)S2(=O)=O)cc1` (stereo unspecified), the T/C is, setting by setting: (dose: 100.0 mg/kg/injection, schedule: Q04DX002 (ip), vehicle: saline with Tween-80) 117 % of control; (dose: 200.0 mg/kg/injection, schedule: Q04DX002 (ip), vehicle: saline with Tween-80) 112 % of control; (dose: 400.0 mg/kg/injection, schedule: Q04DX002 (ip), vehicle: saline with Tween-80) 111 % of control.
As for `COc1ccc(P(=S)(S)c2ccc(OC)cc2)cc1`, the T/C was 100 % of control under setting [8] and 95 % of control (dose: 300.0 mg/kg/injection, schedule: Q01DX009 (ip), vehicle: Klucel (hydroxypropylcellulose) (HPC)).
Turning to `CCCCCCCCCCCCCCCCCC(=O)[O][Sn]([CH2]CCC)([CH2]CCC)[O]C(=O)CCCCCCCCCCCCCCCCC`, the T/C (dose: 12.5 mg/kg/injection, schedule: Q04DX003 (ip), vehicle: other) was 121 % of control.
For the compound `CCCCN(CCCC)CCC(O)c1cc(-c2ccc(Cl)c(Cl)c2)nc2c(Cl)cc(Cl)cc12` (stereo unspecified), the T/C is 99 % of control under setting [9] and 110 % of control under setting [10].
As for `c1ccc(N=NC2=NN(c3ccccc3)CS2)cc1`, the T/C reads like this: under setting [11], 116 % of control; under setting [9], 116 % of control.
Take `C/C=C/C=C/C(=O)NO`: the T/C was 113 % of control (dose: 100.0 mg/kg/injection, schedule: Q04DX003 (ip), vehicle: alcohol); 91 % of control under setting [12]; 100 % of control (dose: 200.0 mg/kg/injection, schedule: Q04DX003 (ip), vehicle: alcohol); 116 % of control (dose: 400.0 mg/kg/injection, schedule: Q01DX009 (ip), vehicle: Klucel (hydroxypropylcellulose) (HPC)); 104 % of control (dose: 400.0 mg/kg/injection, schedule: Q04DX003 (ip), vehicle: alcohol).
For `CCOC(=O)C1Cc2c([nH]c(=O)[nH]c2=O)OC1c1cccc(Cl)c1` (stereo unspecified), the T/C reads like this: (dose: 3.12 mg/kg/injection, schedule: Q01DX009 (ip), vehicle: saline with Tween-80) 98 % of control; (dose: 6.25 mg/kg/injection, schedule: Q01DX009 (ip), vehicle: saline with Tween-80) 96 % of control and 102 % of control; (dose: 12.5 mg/kg/injection, schedule: Q01DX009 (ip), vehicle: saline with Tween-80) 93 % of control; under setting [11], 99 % of control and 107 % of control.
As to `CC1(C)N=C(N)N=C(N)N1c1cccc(OCCOc2ccc([N+](=O)[O-])cc2)c1`, the T/C is 110 % of control (dose: 50.0 mg/kg/injection, schedule: Q01DX009 (ip), vehicle: saline sonified); 100 % of control (dose: 50.0 mg/kg/injection, schedule: Q04DX003 (ip), vehicle: saline sonified); 160 % of control (dose: 100.0 mg/kg/injection, schedule: Q01DX009 (ip), vehicle: saline sonified); 107 % of control (dose: 100.0 mg/kg/injection, schedule: Q04DX003 (ip), vehicle: saline sonified); 107 % of control (dose: 200.0 mg/kg/injection, schedule: Q04DX003 (ip), vehicle: saline sonified).
Turning to `O=C(Oc1ccc([N+](=O)[O-])cc1)c1ccc(C[P+](c2ccccc2)(c2ccccc2)c2ccccc2)cc1`, the T/C under setting [2] was 109 % of control; the T/C under setting [3] was 104 % of control; the T/C under setting [4] is 100 % of control; the T/C under setting [5] is 100 % of control; the T/C under setting [6] was 100 % of control; the T/C under setting [7] was 95 % of control.
Consider `Cc1cc(C)c(C#N)c([S][Sn]([Cl])([Cl])[S]c2nc(C)cc(C)c2C#N)n1`, for which the T/C by setting is: (dose: 100.0 mg/kg/injection, schedule: Q04DX003 (ip), vehicle: saline with Tween-80) 97 % of control; (dose: 200.0 mg/kg/injection, schedule: Q04DX003 (ip), vehicle: saline with Tween-80) 98 % of control.
In the case of `Cc1ccc(C2(C(=O)O)CCCCC2)cc1`, the T/C under setting [8] was 100 % of control; the T/C (dose: 100.0 mg/kg/injection, schedule: Q04DX003 (ip), vehicle: Klucel (hydroxypropylcellulose) (HPC)) was 109 % of control; the T/C under setting [12] was 92 % of control; the T/C (dose: 200.0 mg/kg/injection, schedule: Q04DX003 (ip), vehicle: Klucel (hydroxypropylcellulose) (HPC)) was 104 % of control; the T/C (dose: 400.0 mg/kg/injection, schedule: Q04DX003 (ip), vehicle: Klucel (hydroxypropylcellulose) (HPC)) is 100 % of control.
With `CC1=C(C)C(=O)c2c(OC(=O)c3ccccc3)ccc(OC(=O)c3ccccc3)c2C1=O`, the T/C is, setting by setting: (dose: 6.25 mg/kg/injection, schedule: Q04DX003 (ip), vehicle: saline) 102 % of control; (dose: 12.5 mg/kg/injection, schedule: Q04DX003 (ip), vehicle: saline) 103 % of control; (dose: 25.0 mg/kg/injection, schedule: Q01DX009 (ip), vehicle: saline) 92 % of control; (dose: 25.0 mg/kg/injection, schedule: Q04DX003 (ip), vehicle: saline) 94 % of control; under setting [1], 101 % of control; (dose: 50.0 mg/kg/injection, schedule: Q04DX003 (ip), vehicle: saline) 99 % of control. In addition, the T/C runs as follows: under setting [2], 92 % of control; under setting [3], 94 % of control; under setting [4], 91 % of control; under setting [6], 89 % of control.
Regarding `Cc1ccc2n[nH]nc2c1`, the T/C by setting is: (dose: 25.0 mg/kg/injection, schedule: Q01DX009 (ip), vehicle: Klucel (hydroxypropylcellulose) (HPC)) 99 % of control; (dose: 50.0 mg/kg/injection, schedule: Q01DX009 (ip), vehicle: Klucel (hydroxypropylcellulose) (HPC)) 111 % of control; under setting [8], 107 % of control; under setting [12], 102 % of control.
For `COC(=O)C1(C)CC2C(C)(CCC3(C)C4=CC=C5C(=CC(=O)C(O)=C5C)C4(C)CCC23C)CC1O` (stereo unspecified), the T/C by setting is: (dose: 25.0 mg/kg/injection, schedule: Q01DX001 (ip), vehicle: saline with Tween-80) 109 % of control; (dose: 50.0 mg/kg/injection, schedule: Q01DX001 (ip), vehicle: saline with Tween-80) 91 % of control; (dose: 100.0 mg/kg/injection, schedule: Q01DX001 (ip), vehicle: saline with Tween-80) 104 % of control.
Turning to `C/C(Br)=C(/Br)C(=O)O`, the T/C is 94 % of control under setting [9]; 97 % of control under setting [10]; 87 % of control (dose: 200.0 mg/kg/injection, schedule: Q01DX009 (ip), vehicle: saline with Tween-80).

Values taken from PubChem BioAssay AID328 (DTP/NCI, 2004).
